Laboratory results from patent US20090131431A1, “Pyrazolo[3,4-b]pyridine compounds, and their use as a PDE4 inhibitors” (priority 2005, published 2009).

target: T1, PDE4B (human recombinant) (Homo sapiens, UniProt Q07343); test: Inhibition of PDE4B activity: SPA and/or Fluorescence Polarisation (FP) assay; type: biochemical; details: one reading (n=1) or average of 2 or more readings, read-out: PDE4B pIC50 (±about 0.5) (converted)
T1 construct: made in house
Outline: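 Human recombinant PDE4B activity measured by SPA with [3H]cAMP at about 10 nM, 1 h at ambient temperature, enzyme set for ≤20% substrate hydrolysis, or by IMAP FP with Fl-cAMP at about 40 nM, 40 min at ambient temperature under linear conditions. Inhibition curves fitted; values reported as pIC50.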

T1 sequence (Q07343 1-564 isoform Q07343-2): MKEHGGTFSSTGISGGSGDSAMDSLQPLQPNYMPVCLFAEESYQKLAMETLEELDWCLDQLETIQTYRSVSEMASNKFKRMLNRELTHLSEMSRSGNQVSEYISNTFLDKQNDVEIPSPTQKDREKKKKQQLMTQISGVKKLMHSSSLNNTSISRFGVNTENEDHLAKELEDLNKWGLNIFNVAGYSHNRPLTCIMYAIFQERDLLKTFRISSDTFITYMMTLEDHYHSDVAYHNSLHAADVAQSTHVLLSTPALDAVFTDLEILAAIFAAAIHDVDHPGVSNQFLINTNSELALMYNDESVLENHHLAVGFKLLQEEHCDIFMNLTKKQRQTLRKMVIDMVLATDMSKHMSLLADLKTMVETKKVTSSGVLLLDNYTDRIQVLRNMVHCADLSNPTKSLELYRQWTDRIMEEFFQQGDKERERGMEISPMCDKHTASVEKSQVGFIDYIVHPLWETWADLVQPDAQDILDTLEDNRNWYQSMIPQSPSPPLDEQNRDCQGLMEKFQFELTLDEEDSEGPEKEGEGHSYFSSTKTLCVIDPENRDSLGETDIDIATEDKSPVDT

Compound | IC50 [nM]
CCc1nc2c(cnn2CC)c(NC2CCOCC2)c1CNC(=O)c1cc(C)on1 [Example 233, N-{[1,6-diethyl-4-(tetrahydro-2H-pyran-4-ylamino)-1H-pyrazolo[3,4-b]pyridin-5-yl]methyl}-5-methyl-3-isoxazolecarboxamide] | 0.01 to 0.1
CCc1nc2c(cnn2CC)c(NC2CCOCC2)c1CNC(=O)c1cncs1 [Example 234, N-{[1,6-diethyl-4-(tetrahydro-2H-pyran-4-ylamino)-1H-pyrazolo[3,4-b]pyridin-5-yl]methyl}-1,3-thiazole-5-carboxamide] | 0.126 to 1
CCc1nc2c(cnn2CC)c(NC2CCOCC2)c1CNC(=O)c1ccsc1 [Example 235, N-{[1,6-diethyl-4-(tetrahydro-2H-pyran-4-ylamino)-1H-pyrazolo[3,4-b]pyridin-5-yl]methyl}-3-thiophenecarboxamide] | 0.01 to 0.1
CCc1nc2c(cnn2CC)c(NC2CCOCC2)c1CNC(=O)c1cnc(C)cn1 [Example 236, N-{[1,6-diethyl-4-(tetrahydro-2H-pyran-4-ylamino)-1H-pyrazolo[3,4-b]pyridin-5-yl]methyl}-5-methyl-2-pyrazinecarboxamide] | 0.01 to 0.1
CCc1nc2c(cnn2CC)c(NC2CCOCC2)c1CNC(=O)c1ccn(C)n1 [Example 238, N-{[1,6-diethyl-4-(tetrahydro-2H-pyran-4-ylamino)-1H-pyrazolo[3,4-b]pyridin-5-yl]methyl}-1-methyl-1H-pyrazole-3-carboxamide] | 0.126 to 1
CCc1nc2c(cnn2CC)c(NC2CCOCC2)c1CNC(=O)c1cnco1 [Example 239, N-{[1,6-diethyl-4-(tetrahydro-2H-pyran-4-ylamino)-1H-pyrazolo[3,4-b]pyridin-5-yl]methyl}-1,3-oxazole-5-carboxamide] | 0.126 to 1
CCc1nc2c(cnn2CC)c(NC2CCN(C(N)=O)CC2)c1CNC(=O)c1ccco1 [Example 240, 4-[(1,6-diethyl-5-{[(2-furanylcarbonyl)amino]methyl}-1H-pyrazolo[3,4-b]pyridin-4-yl)amino]-1-piperidinecarboxamide] | 0.01 to 0.1
CCc1nc2c(cnn2CC)c(NC2CCN(C(N)=O)CC2)c1CNC(=O)c1ccc(NC(C)=O)cc1O [Example 241, 4-({5-[({[4-(acetylamino)-2-hydroxyphenyl]carbonyl}amino)methyl]-1,6-diethyl-1H-pyrazolo[3,4-b]pyridin-4-yl}amino)-1-piperidinecarboxamide] | 0.01 to 0.1
CCc1nc2c(cnn2CC)c(NC2CCN(C(N)=O)CC2)c1CNC(=O)c1ccc(NC(C)=O)cc1 [Example 242, 4-({5-[({[4-(acetylamino)phenyl]carbonyl}amino)methyl]-1,6-diethyl-1H-pyrazolo[3,4-b]pyridin-4-yl}amino)-1-piperidinecarboxamide] | 0.01 to 0.1
CCc1nc2c(cnn2CC)c(NC2CCN(C(N)=O)CC2)c1CNC(=O)c1ccc(C(C)(C)C)cc1 [Example 243, 4-({5-[({[4-(1-dimethylethyl)phenyl]carbonyl}amino)methyl]-1,6-diethyl-1H-pyrazolo[3,4-b]pyridin-4-yl}amino)-1-piperidinecarboxamide] | 0.01 to 0.1
CCc1nc2c(cnn2CC)c(NC2CCN(C(N)=O)CC2)c1CNC(=O)c1cccc(NC(C)=O)c1 [Example 244, 4-({5-[({[3-(acetylamino)phenyl]carbonyl}amino)methyl]-1,6-diethyl-1H-pyrazolo[3,4-b]pyridin-4-yl}amino)-1-piperidinecarboxamide] | 0.01 to 0.1
CCc1nc2c(cnn2CC)c(NC2CCN(C(N)=O)CC2)c1CNC(=O)c1ccc(C)cc1O [Example 245, 4-{[1,6-diethyl-5-({[(2-hydroxy-4-methylphenyl)carbonyl]amino}methyl)-1H-pyrazolo[3,4-b]pyridin-4-yl]amino}-1-piperidinecarboxamide] | 0.01 to 0.1
CCc1nc2c(cnn2CC)c(NC2CCN(C(N)=O)CC2)c1CNC(=O)c1ccccc1F [Example 246, 4-{[1,6-diethyl-5-({[(2-fluorophenyl)carbonyl]amino}methyl)-1H-pyrazolo[3,4-b]pyridin-4-yl]amino}-1-piperidinecarboxamide] | 0.01 to 0.1
CCc1nc2c(cnn2CC)c(NC2CCN(C(N)=O)CC2)c1CNC(=O)c1cccc(N2CCCC2=O)c1 [Example 247, 4-({1,6-diethyl-5-[({[3-(2-oxo-1-pyrrolidinyl)phenyl]carbonyl}amino)methyl]-1H-pyrazolo[3,4-b]pyridin-4-yl}amino)-1-piperidinecarboxamide] | 0.01 to 0.1
CCc1nc2c(cnn2CC)c(NC2CCN(C(N)=O)CC2)c1CNC(=O)c1ccc2c(=O)[nH][nH]c2c1 [Example 248, N-[(4-{[1-(aminocarbonyl)-4-piperidinyl]amino}-1,6-diethyl-1H-pyrazolo[3,4-b]pyridin-5-yl)methyl]-3-oxo-2,3-dihydro-1H-indazole-6-carboxamide] | 0.01 to 0.1
CCc1nc2c(cnn2CC)c(NC2CCOCC2)c1CNC(=O)c1ccc(S(C)(=O)=O)cc1 [Example 249, N-{[1,6-diethyl-4-(tetrahydro-2H-pyran-4-ylamino)-1H-pyrazolo[3,4-b]pyridin-5-yl]methyl}-4-(methylsulfonyl)benzamide] | 0.126 to 1
CCc1nc2c(cnn2CC)c(NC2CCOCC2)c1CNC(=O)c1ccccc1O [Example 250, N-{[1,6-diethyl-4-(tetrahydro-2H-pyran-4-ylamino)-1H-pyrazolo[3,4-b]pyridin-5-yl]methyl}-2-hydroxybenzamide] | 0.01 to 0.1
CCc1nc2c(cnn2CC)c(NC2CCOCC2)c1CNC(=O)c1ccc(NC(C)=O)cc1O [Example 251, 4-(acetylamino)-N-{[1,6-diethyl-4-(tetrahydro-2H-pyran-4-ylamino)-1H-pyrazolo[3,4-b]pyridin-5-yl]methyl}-2-hydroxybenzamide] | 0.01 to 0.1
CCc1nc2c(cnn2CC)c(NC2CCOCC2)c1CNC(=O)c1ccc(C(C)(C)C)cc1 [Example 252, N-{[1,6-diethyl-4-(tetrahydro-2H-pyran-4-ylamino)-1H-pyrazolo[3,4-b]pyridin-5-yl]methyl}-4-(1,1-dimethylethyl)benzamide] | 0.01 to 0.1
CCc1nc2c(cnn2CC)c(NC2CCOCC2)c1CNC(=O)c1ccc(C(N)=O)cc1 [Example 253, N-{[1,6-diethyl-4-(tetrahydro-2H-pyran-4-ylamino)-1H-pyrazolo[3,4-b]pyridin-5-yl]methyl}-1,4-benzenedicarboxamide] | 0.01 to 0.1
CCc1nc2c(cnn2CC)c(NC2CCOCC2)c1CNC(=O)c1ccc(C)cc1O [Example 254, N-{[1,6-diethyl-4-(tetrahydro-2H-pyran-4-ylamino)-1H-pyrazolo[3,4-b]pyridin-5-yl]methyl}-2-hydroxy-4-methylbenzamide] | 0.01 to 0.1
CCc1nc2c(cnn2CC)c(NC2CCOCC2)c1CNC(=O)c1ccc(C(=O)NC)cc1 [Example 255, N-{[1,6-diethyl-4-(tetrahydro-2H-pyran-4-ylamino)-1H-pyrazolo[3,4-b]pyridin-5-yl]methyl}-N′-methyl-1,4-benzenedicarboxamide] | 0.01 to 0.1
CCc1nc2c(cnn2CC)c(NC2CCOCC2)c1CNC(=O)c1ccc(C(C)(C)C)cc1O [Example 256, N-{[1,6-diethyl-4-(tetrahydro-2H-pyran-4-ylamino)-1H-pyrazolo[3,4-b]pyridin-5-yl]methyl}-4-(1,1-dimethylethyl)-2-hydroxybenzamide] | 0.01 to 0.1
CCc1nc2c(cnn2CC)c(NC2CCOCC2)c1CNC(=O)c1ccc2c(=O)[nH][nH]c2c1 [Example 257, N-{[1,6-diethyl-4-(tetrahydro-2H-pyran-4-ylamino)-1H-pyrazolo[3,4-b]pyridin-5-yl]methyl}-3-oxo-2,3-dihydro-1H-indazole-6-carboxamide] | 0.01 to 0.1
CCc1nc2c(cnn2CC)c(NC2CCOCC2)c1CNC(=O)c1ccc2c(c1)CCCS2(=O)=O [Example 258, N-{[1,6-diethyl-4-(tetrahydro-2H-pyran-4-ylamino)-1H-pyrazolo[3,4-b]pyridin-5-yl]methyl}-3,4-dihydro-2H-1-benzothiopyran-6-carboxamide 1,1-dioxide] | 0.01 to 0.1
CCn1ncc2c(NC3CCN(C(N)=O)CC3)c(CNC(=O)c3ccc(S(C)(=O)=O)cc3)c(C)nc21 [Example 259, 4-({1-ethyl-6-methyl-5-[({[4-(methylsulfonyl)phenyl]carbonyl}amino)methyl]-1H-pyrazolo[3,4-b]pyridin-4-yl}amino)-1-piperidinecarboxamide] | 0.126 to 1
CCn1ncc2c(NC3CCN(C(N)=O)CC3)c(CNC(=O)c3ccccc3O)c(C)nc21 [Example 260, 4-{[1-ethyl-5-({[(2-hydroxyphenyl)carbonyl]amino}methyl)-6-methyl-1H-pyrazolo[3,4-b]pyridin-4-yl]amino}-1-piperidinecarboxamide] | 0.01 to 0.1
CCn1ncc2c(NC3CCN(C(N)=O)CC3)c(CNC(=O)c3ccc(NC(C)=O)cc3O)c(C)nc21 [Example 261, 4-({5-[({[4-(acetylamino)-2-hydroxyphenyl]carbonyl}amino)methyl]-1-ethyl-6-methyl-1H-pyrazolo[3,4-b]pyridin-4-yl}amino)-1-piperidinecarboxamide] | 0.01 to 0.1
CCn1ncc2c(NC3CCN(C(N)=O)CC3)c(CNC(=O)c3ccc(C(C)(C)C)cc3)c(C)nc21 [Example 262, 4-({5-[({[4-(1,1-dimethylethyl)phenyl]carbonyl}amino)methyl]-1-ethyl-6-methyl-1H-pyrazolo[3,4-b]pyridin-4-yl}amino)-1-piperidinecarboxamide] | 0.01 to 0.1
CCn1ncc2c(NC3CCN(C(N)=O)CC3)c(CNC(=O)c3ccc(C(C)C)cc3)c(C)nc21 [Example 263, 4-({1-ethyl-6-methyl-5-[({[4-(1-methylethyl)phenyl]carbonyl}amino)methyl]-1H-pyrazolo[3,4-b]pyridin-4-yl}amino)-1-piperidinecarboxamide] | 0.01 to 0.1
